Test results reported in patent publication US7183112B2, “Uses for anti-malarial therapeutic agents” (APT Pharmaceuticals, LLC, priority 1999, dated 2007).
“And” between values parts separate entries of the source, which are not always exact repeats. Equal values may be shown once. Marks after values point to notes of the source that are not given here.

How the values were obtained:
Ascaris-sensitized sheep [1] = assay: Airway responsiveness to inhaled carbachol (PC400), Examples 1-2; assay type: in vivo; conditions: for ORC #2 (24 P-Ag.) (carbachol reactivity, PC 400) / ORC #1 BSLN. (carbachol reactivity, PC 400): Example 2, aerosol 40 mg b.i.d. (2 mg/kg/day); for ORC #2 (24 P-Ag.) (carbachol reactivity, PC 400): 24 hour post-antigen challenge; for ORC #1 BSLN. (carbachol reactivity, PC 400): baseline
Method: Dose Response Curves to Inhaled Carbachol: For the carbachol dose response curves, measurements of SRL were repeated immediately after inhalation of buffer and after each administration of 10 breaths of increasing concentrations of carbachol solution (0.25%, 0.5%, 1.0%, 2.0% and 4.0% w/v). To assess airway responsiveness, the cumulative carbachol dose in breath units (BU) that increased SRL 400% over the post-buffer value (i.e. PC400) was calculated from the dose response curve. One breath unit was defined as one breath of a 1% w/v carbachol solution.
At 3 to 4 days before treatment was begun, baseline airway responsiveness, to aerosol carbachol (i.e., PC400) was determined and a baseline bronchial biopsy performed. […] The animals were treated two times a day for 3 days and then, on the fourth day, at 0.5 hours before antigen challenge and again at 4 hours after challenge. On the antigen-challenge day, SRL was measured and the animals were than treated with HCQ designated compound. SRL was remeasured 0.5 h after treatment (just before challenge) and the animals were then challenged with antigen. SRL was then remeasured immediately after.
On the fourth day, they received an additional treatment one-half hour prior to antigen challenge.

Ascaris-sensitized sheep [2] = assay: Antigen-induced specific lung resistance (baseline, peak EAR, peak LAR), Example 3; assay type: in vivo; conditions: for EAR (peak, largest specific lung resistance 0–4 h) / LAR (peak, largest specific lung resistance 5–8 h): mean ± SE, n = 3 sheep
Description: All procedures were approved by the Mount Sinai Medical Center Animal Research Committee, which is responsible for assuring the humane care and use of experimental animals. […] During the chronic treatment trail, venous blood samples were obtained from the external jugular vein for the determination of plasma compound concentrations. Samples were obtained as baseline (pre-dosing), and, then, before dosing on days 8, 15, 22, 29 and after dosing had stopped on day 43. Measurement of Airway Mechanics: The unsedated sheep were restrained in a cart in the prone position with their heads immobilized. After topical anesthesia of the nasal passages with 2%-lidocaine solution, a balloon catheter was advanced through one nostril into the lower esophagus. The animals were […] with a cuffed endotracheal tube through the other nostril using a flexible fiberoptic bronchoscope as a guide. (The cuff of the endotracheal tube was inflated only for the measurement of airway mechanics and during aerosol challenges to prevent undue discomfort. This procedure has no-effect on airway mechanics). Pleural pressure was estimated with the esophageal balloon catheter (filled with one ml of air) which was positioned 5–10 cm from the gastroesophageal junction. In this position, the end expiratory pleural pressure ranged between -2 and -5 cm H2O. Once the balloon was placed, it was secured so that it remained in position for the duration of the experiment. Lateral pressure in the trachea was measured with a sidehole catheter (inner dimension, 2.5 mm) advanced through and positioned distal to the tip of the endotracheal tube. Transpulmonary pressure, the difference between tracheal and pleural pressure, was measured with a differential pressure transducer catheter system. For the measurement of pulmonary resistance (RL), the proximal end of the endotracheal tube was connected to a pneumotachograph. The signals of flow and transpulmonary pressure were recorded on a n oscilloscope recorder which was linked to a computer for on-line calculation of RL from transpulmonary pressure, respiratory volume (obtained by digital integration) and flow. Analysis of 5–10 breaths were used for the determination of RL. Immediately after the measurements of RL, thoracic gas volume (Vtg) was measured in a constant volume body plethysmograph to obtain specific lung resistance (SRL=RL·Vtg) in cm H2O·sec^−1. Aerosol Delivery Systems: Aerosols of Ascaris suum extract (diluted 20:1 with phosphate buffered saline; 82,000 PNU/ml) were generated using a disposable medical nebulizer (Raindrop^R, Puritan Bennett), which produces an aerosol with a mass median aerodynamic diameter of 3.2 μm (geometric standard deviation, 1.9) as determined by a 7 stage Andersen cascade impactor. The output from the nebulizer was directed into a plastic T-piece, one end of which was connected to the inspiratory port of a Harvard respirator. To better control aerosol delivery, a dosimeter consisting of a solenoid valve and a source of compressed air (20 psi) was activated at the beginning of the inspiratory cycle of the Harvard respirator system for 1 second. The aerosol was delivered at a tidal volume of 500 ml and a rate of 20 breaths per minute for 20 minutes. Each sheep was challenged with an equivalent dose of antigen (400 breaths) in the control and drug trials. Carbachol aerosols were also generated with this same nebulizer system. The same basic protocol was used for all studies in Example 3. This basic protocol consisted of first obtaining baseline dose response curves to aerosol carbachol 1–3 days prior to antigen challenge. Then, on the day of antigen challenge, values of specific lung resistance (SRL) were measured at baseline and, then, 30 min after drug or vehicle (0.9% saline) treatment. The animals were, then, challenged with Ascaris suum antigen and SRL was remeasured immediately after challenge, hourly from 1–6 h after challenge and on the half-hour from 6 ½–8 h after challenge. […]

[3] = No Treatment 14d after stopping aerosol 2 mg/kg/d x 28 d
[4] = No Treatment 28d after stopping aerosol 2 mg/kg/d x 28 d
[5] = aerosol 0.2 mg/kg once a day x 4 d
[6] = aerosol 0.6 mg/kg once a day x 4 d
[7] = aerosol 1 mg/kg twice a day for 4 days
[8] = aerosol 1 mg/kg twice a day x 4 d
[9] = aerosol 2 mg/kg once a day for 4 days
[10] = aerosol 2 mg/kg once a day x 4 d
[11] = aerosol 2 mg/kg once a day x 14 d
[12] = aerosol 2 mg/kg once a day x 28 d
[13] = chronic treatment, aerosol 2 mg/kg once a day for up to 4 weeks
[14] = dose response, aerosol 0.2, 0.6 and 2 mg/kg once a day for 4 days
[15] = p.o. 1 mg/kg twice a day for 4 days

## CCN(CCO)CCCC(C)Nc1ccnc2cc(Cl)ccc12 (centres unmarked) [HCQ, hydroxychloroquine]
Ascaris-sensitized sheep [1]; Mean of 2 sheep
  ORC #2 (24 P-Ag.) (carbachol reactivity, PC 400): 15.82 breath units
  ORC #1 BSLN. (carbachol reactivity, PC 400): 12.74 breath units
Ascaris-sensitized sheep [1]; individual sheep
  ORC #2 (24 P-Ag.) (carbachol reactivity, PC 400): 15.86 breath units and 15.77 breath units
  ORC #1 BSLN. (carbachol reactivity, PC 400): 10.65 breath units and 14.83 breath units
Ascaris-sensitized sheep [1]; inhaled (nebulized), twenty-four hours later, summary of animal studies
  effect on bronchial hyperresponsiveness: continued effect at blocking
Ascaris-sensitized sheep [2]; 2 weeks after stopping 4 weeks aerosol 2 mg/kg once a day
  effect on LAR and AHR after stopping treatment: carryover effect
Ascaris-sensitized sheep [2]; 2 weeks after stopping aerosol 1 mg/kg twice a day for 4 days
  response to allergen after stopping treatment: responded normally
Ascaris-sensitized sheep [2]; 2 weeks after stopping aerosol 2 mg/kg once a day for 4 days
  response to allergen after stopping treatment: responded normally
Ascaris-sensitized sheep [2]; 4 weeks after stopping 4 weeks aerosol 2 mg/kg once a day
  animals' responses after stopping treatment: returned to normal
Ascaris-sensitized sheep [2]; [3]
  EAR (peak, largest specific lung resistance 0–4 h): 4.17 ± 1.70 cmH2O.sec^−1
  LAR (peak, largest specific lung resistance 5–8 h): 1.69 ± 0.21 cmH2O.sec^−1
Ascaris-sensitized sheep [2]; [4]
  EAR (peak, largest specific lung resistance 0–4 h): 4.35 ± 0.74 cmH2O.sec^−1
  LAR (peak, largest specific lung resistance 5–8 h): 2.69 ± 0.26^h cmH2O.sec^−1
Ascaris-sensitized sheep [2]; [5]
  EAR (peak, largest specific lung resistance 0–4 h): 3.95 ± 0.47 cmH2O.sec^−1
  LAR (peak, largest specific lung resistance 5–8 h): 2.22 ± 0.17^h cmH2O.sec^−1
Ascaris-sensitized sheep [2]; aerosol 0.6 mg/kg once a day for 4 days
  overall protective effect: significant protective effects
Ascaris-sensitized sheep [2]; [6]
  EAR (peak, largest specific lung resistance 0–4 h): 3.19 ± 0.51 cmH2O.sec^−1
  LAR (peak, largest specific lung resistance 5–8 h): 1.30 ± 0.18^f cmH2O.sec^−1
Ascaris-sensitized sheep [2]; [7]
  effect on early airway response (EAR): no effect
  effect on late airway response (LAR): blocked
Ascaris-sensitized sheep [2]; [8]
  EAR (peak, largest specific lung resistance 0–4 h): 5.57 ± 1.82 cmH2O.sec^−1
  LAR (peak, largest specific lung resistance 5–8 h): 1.35 ± 0.15^d,e cmH2O.sec^−1
Ascaris-sensitized sheep [2]; [9]
  effect on EAR: no effect
  effect on LAR: blocked
Ascaris-sensitized sheep [2]; [10]
  EAR (peak, largest specific lung resistance 0–4 h): 3.5 ± 0.73 cmH2O.sec^−1 and 3.53 ± 0.73 cmH2O.sec^−1
  LAR (peak, largest specific lung resistance 5–8 h): 1.34 ± 0.32^d,e cmH2O.sec^−1 and 1.34 ± 0.03^d cmH2O.sec^−1
Ascaris-sensitized sheep [2]; [11]
  EAR (peak, largest specific lung resistance 0–4 h): 4.21 ± 1.68 cmH2O.sec^−1
  LAR (peak, largest specific lung resistance 5–8 h): 0.78 ± 0.39^f cmH2O.sec^−1
Ascaris-sensitized sheep [2]; [12]
  EAR (peak, largest specific lung resistance 0–4 h): 4.21 ± 1.16 cmH2O.sec^−1
  LAR (peak, largest specific lung resistance 5–8 h): 1.22 ± 0.08^d cmH2O.sec^−1
Ascaris-sensitized sheep [2]; [13]
  effect on EAR: no effect
  effect on LAR: block
Ascaris-sensitized sheep [2]; [14]
  effect on EAR: no effect
  effect on LAR: blocked
Ascaris-sensitized sheep [2]; [15]
  effect on antigen-induced EAR: did not protect
  effect on antigen-induced LAR: did not protect
Ascaris-sensitized sheep [2]; p.o. 1 mg/kg twice a day x 4 d
  EAR (peak, largest specific lung resistance 0–4 h): 4.64 ± 0.55 cmH2O.sec^−1
  LAR (peak, largest specific lung resistance 5–8 h): 2.27 ± 0.10 cmH2O.sec^−1
